Measurements as given in PubChem BioAssay (NCI).
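Test compounds were applied to cells in 96-well plates for 48 hours at 5 doses. The concentration for 50% growth inhibition is given as GI50. TGI marks complete inhibition of growth.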

Legend:
Assay in all cases: NCI tumour cell line growth inhibition, 48 h
CAKI-1 renal = tested on: CAKI-1 renal
CCRF-CEM leukemia = tested on: CCRF-CEM leukemia
LOX IMVI melanoma = tested on: LOX IMVI melanoma
MDA-MB-435 = tested on: MDA-MB-435
MOLT-4 leukemia = tested on: MOLT-4 leukemia
OVCAR-5 ovarian = tested on: OVCAR-5 ovarian
PC-3 prostate = tested on: PC-3 prostate
SK-MEL-28 melanoma = tested on: SK-MEL-28 melanoma
SNB-75 CNS = tested on: SNB-75 CNS
M14 melanoma = tested on: M14 melanoma

SMILES: O=C(c1nc2ccccc2[nH]1)C1C(c2cccc([N+](=O)[O-])c2)C2CC3CCCCC3N2[C@@]12C(=O)Nc1cc(Cl)ccc12 (some centres undefined)
- GI50 (CAKI-1 renal): 1.43 µM
- TGI (CAKI-1 renal): 3.94 µM
- GI50 (CCRF-CEM leukemia): 3.11 µM
- TGI (CCRF-CEM leukemia): > 100 µM
- GI50 (LOX IMVI melanoma): 1.55 µM
- TGI (LOX IMVI melanoma): 2.96 µM
- GI50 (MDA-MB-435): 1.65 µM
- TGI (MDA-MB-435): 3.19 µM
- GI50 (MOLT-4 leukemia): 2.38 µM
- TGI (MOLT-4 leukemia): 10.1 µM
- GI50 (OVCAR-5 ovarian): 1.48 µM
- TGI (OVCAR-5 ovarian): 3.11 µM
- GI50 (PC-3 prostate): 1.3 µM
- TGI (PC-3 prostate): 4.4 µM
- GI50 (SK-MEL-28 melanoma): 1.81 µM
- TGI (SK-MEL-28 melanoma): 3.7 µM
- GI50 (SNB-75 CNS): 1.18 µM
- TGI (SNB-75 CNS): 3.63 µM

SMILES: Cn1cc(C2=C(c3cn(C)c4cc(Cl)ccc34)C(=O)NC2=O)c2ccccc21
- GI50 (CCRF-CEM leukemia): 0.093 µM
- TGI (CCRF-CEM leukemia): > 25 µM
- GI50 (LOX IMVI melanoma): 0.198 µM
- TGI (LOX IMVI melanoma): > 25 µM
- GI50 (M14 melanoma): 0.0879 µM
- TGI (M14 melanoma): > 25 µM
- GI50 (MDA-MB-435): 0.0475 µM
- TGI (MDA-MB-435): 0.12 µM
- GI50 (MOLT-4 leukemia): 0.345 µM
- TGI (MOLT-4 leukemia): > 25 µM
- GI50 (OVCAR-5 ovarian): 0.157 µM
- TGI (OVCAR-5 ovarian): > 25 µM
- GI50 (PC-3 prostate): 0.0796 µM
- TGI (PC-3 prostate): > 25 µM
- GI50 (SK-MEL-28 melanoma): 3.59 µM
- TGI (SK-MEL-28 melanoma): > 25 µM
- GI50 (SNB-75 CNS): 0.0893 µM
- TGI (SNB-75 CNS): > 25 µM

SMILES: O=C(Nc1ccc(Oc2cccc(Cl)c2)c(Cl)c1)c1cccnc1
- GI50 (CAKI-1 renal): 2.63 µM
- TGI (CAKI-1 renal): 36.6 µM
- GI50 (CCRF-CEM leukemia): 1.89 µM
- TGI (CCRF-CEM leukemia): > 50 µM
- GI50 (LOX IMVI melanoma): 2.9 µM
- TGI (LOX IMVI melanoma): 13 µM
- GI50 (M14 melanoma): 1.38 µM
- TGI (M14 melanoma): 29 µM
- GI50 (MDA-MB-435): 0.155 µM
- TGI (MDA-MB-435): 0.723 µM
- GI50 (MOLT-4 leukemia): 2.86 µM
- TGI (MOLT-4 leukemia): > 50 µM
- GI50 (OVCAR-5 ovarian): 5.5 µM
- TGI (OVCAR-5 ovarian): > 50 µM
- GI50 (SK-MEL-28 melanoma): 7.2 µM
- TGI (SK-MEL-28 melanoma): > 50 µM
- GI50 (SNB-75 CNS): 1.21 µM
- TGI (SNB-75 CNS): 4.81 µM

SMILES: CC(=O)OC1CC2C(C)(C)C(=O)C=C[C@]2(C)C2CCC3(C)C(=CCC3[C@H](CO)C[C@H](O)C(=O)C(C)(C)O)[C@]12C (some centres undefined)
- TGI (CAKI-1 renal): 55.3 µM
- TGI (CCRF-CEM leukemia): 66.3 µM
- TGI (LOX IMVI melanoma): 33.6 µM
- TGI (M14 melanoma): 45.6 µM
- TGI (MOLT-4 leukemia): 89.5 µM
- TGI (OVCAR-5 ovarian): 83.3 µM
- TGI (SK-MEL-28 melanoma): 36.5 µM
- TGI (SNB-75 CNS): 91.6 µM

SMILES: Cc1cccc(Cc2cnc(NC(=O)/C=C/c3ccco3)s2)c1
- GI50 (CAKI-1 renal): 0.0459 µM
- TGI (CAKI-1 renal): > 100 µM
- GI50 (CCRF-CEM leukemia): 0.0433 µM
- TGI (CCRF-CEM leukemia): > 100 µM
- GI50 (LOX IMVI melanoma): 0.0683 µM
- TGI (LOX IMVI melanoma): > 100 µM
- GI50 (M14 melanoma): 0.031 µM
- TGI (M14 melanoma): > 100 µM
- GI50 (MOLT-4 leukemia): 0.0561 µM
- TGI (MOLT-4 leukemia): > 100 µM
- GI50 (OVCAR-5 ovarian): 0.208 µM
- TGI (OVCAR-5 ovarian): > 100 µM
- GI50 (PC-3 prostate): 0.04 µM
- TGI (PC-3 prostate): > 100 µM
- GI50 (SK-MEL-28 melanoma): > 100 µM
- TGI (SK-MEL-28 melanoma): > 100 µM

SMILES: N#CC(N)(C(=O)C(=O)NCCCNC(=O)C(=O)C(N)(C#N)c1ccc(Cl)cc1)c1ccc(Cl)cc1 (centres undefined)
- TGI (CAKI-1 renal): > 100 µM
- TGI (CCRF-CEM leukemia): > 100 µM
- TGI (LOX IMVI melanoma): > 100 µM
- TGI (M14 melanoma): > 100 µM
- TGI (MOLT-4 leukemia): > 100 µM
- TGI (OVCAR-5 ovarian): > 100 µM
- TGI (SK-MEL-28 melanoma): > 100 µM
- TGI (SNB-75 CNS): > 100 µM

SMILES: CO[C@H]1/C=C/C=C/C=C/C[C@H](OC(=O)[C@@H](C)NC(=O)C2CCCCC2)[C@H](C)[C@@H](O)/C(C)=C\CCC2=CC(=O)C=C(NC(=O)C1)C2=O
- GI50 (CCRF-CEM leukemia): 0.114 µM
- TGI (CCRF-CEM leukemia): > 50 µM
- GI50 (LOX IMVI melanoma): 0.104 µM
- TGI (LOX IMVI melanoma): 0.547 µM
- GI50 (M14 melanoma): 0.119 µM
- TGI (M14 melanoma): 0.746 µM
- GI50 (MDA-MB-435): 0.154 µM
- TGI (MDA-MB-435): 0.989 µM
- GI50 (MOLT-4 leukemia): 0.142 µM
- TGI (MOLT-4 leukemia): 7.04 µM
- GI50 (OVCAR-5 ovarian): 0.324 µM
- TGI (OVCAR-5 ovarian): 2.89 µM
- GI50 (PC-3 prostate): 0.128 µM
- TGI (PC-3 prostate): 0.896 µM
- GI50 (SK-MEL-28 melanoma): 0.102 µM
- TGI (SK-MEL-28 melanoma): 0.49 µM
- GI50 (SNB-75 CNS): 0.0832 µM
- TGI (SNB-75 CNS): 1.7 µM
